Measured values as given in PubChem BioAssay AID1963869 (Molecular Pharmacology Branch, DTP, NCI, 2024).

Tested on: KRAS patient-derived spheroids with HUVEC/MSC, viability
Assay: Anticancer human tumor 323965-272-R-J2-PDC patient-derived pancreatic carcinoma cell line growth inhibition [KRAS2]
Conditions: for viability, T/C: stronger effect = lower value; active = viability on the fitted dose curve at most 10% of control; inactive = the rest
In short: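 KRAS-mutant tumor cells were grown as spheroids with HUVEC endothelial cells and human MSCs as stroma. Targeted agents were tested alone and with KRAS pathway inhibitors. Doses started at or near clinical Cmax, or 10 microM, descending half-log.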

[1] = curve of first compound, second compound 0.1 µM
[2] = curve of first compound, second compound 0.316 µM
[3] = curve of first compound, second compound 1 µM
[4] = curve of first compound, second compound 3.16 µM
[5] = second compound 0.1 µM, first compound 0.00316 µM
[6] = second compound 0.1 µM, first compound 0.01 µM
[7] = second compound 0.1 µM, first compound 0.0316 µM
[8] = second compound 0.1 µM, first compound 0.1 µM
[9] = second compound 0.316 µM, first compound 0.00316 µM
[10] = second compound 0.316 µM, first compound 0.01 µM
[11] = second compound 0.316 µM, first compound 0.0316 µM
[12] = second compound 0.316 µM, first compound 0.1 µM
[13] = second compound 1 µM, first compound 0.00316 µM
[14] = second compound 1 µM, first compound 0.01 µM
[15] = second compound 1 µM, first compound 0.0316 µM
[16] = second compound 1 µM, first compound 0.1 µM
[17] = second compound 3.16 µM, first compound 0.00316 µM
[18] = second compound 3.16 µM, first compound 0.01 µM
[19] = second compound 3.16 µM, first compound 0.0316 µM
[20] = second compound 3.16 µM, first compound 0.1 µM
[21] = curve of first compound, second compound 10 µM
[22] = second compound 0.1 µM, first compound 0.316 µM
[23] = second compound 0.1 µM, first compound 1 µM
[24] = second compound 0.316 µM, first compound 0.316 µM
[25] = second compound 0.316 µM, first compound 1 µM
[26] = second compound 1 µM, first compound 0.316 µM
[27] = second compound 1 µM, first compound 1 µM
[28] = second compound 3.16 µM, first compound 0.316 µM
[29] = second compound 3.16 µM, first compound 1 µM
[30] = second compound 10 µM, first compound 0.0316 µM
[31] = second compound 10 µM, first compound 0.1 µM
[32] = second compound 10 µM, first compound 0.316 µM
[33] = second compound 10 µM, first compound 1 µM
[34] = second compound 0.1 µM, first compound 3.16 µM
[35] = second compound 0.1 µM, first compound 10 µM
[36] = second compound 0.316 µM, first compound 3.16 µM
[37] = second compound 0.316 µM, first compound 10 µM
[38] = second compound 1 µM, first compound 3.16 µM
[39] = second compound 1 µM, first compound 10 µM
[40] = second compound 3.16 µM, first compound 3.16 µM
[41] = second compound 3.16 µM, first compound 10 µM
[42] = second compound 10 µM, first compound 3.16 µM
[43] = second compound 10 µM, first compound 10 µM
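Also: spheroids exposed to agents for 7 days.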
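For viability, T/C in this document: 100% = DMSO vehicle control viability.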

Cn1ncnc1[C@H]1c2n[nH]c(=O)c3cc(F)cc(c23)N[C@@H]1c1ccc(F)cc1 + C=CC(=O)N1CCN(c2nc(OCC3CCCN3C)nc3c2CCN(c2cccc4cccc(C)c24)C3)CC1CC#N
inactive: viability, T/C (second compound 0.0316 µM, first compound 0.000316 µM) 75.5% | viability, T/C (second compound 0.0316 µM, first compound 0.001 µM) 83.2% | viability, T/C (second compound 0.0316 µM, first compound 0.00316 µM) 73.7% | viability, T/C (second compound 0.0316 µM, first compound 0.01 µM) 71.2% | viability, T/C (second compound 0.0316 µM, first compound 0.0316 µM) 68.7% | viability, T/C (second compound 0.0316 µM, first compound 0.1 µM) 64% | viability, T/C (second compound 0.1 µM, first compound 0.000316 µM) 71.2% | viability, T/C (second compound 0.1 µM, first compound 0.001 µM) 62.3% | viability, T/C [5] 62% | viability, T/C [6] 61.5% | viability, T/C [7] 60.5% | viability, T/C [8] 53.8% | viability, T/C (second compound 0.316 µM, first compound 0.000316 µM) 64.2% | viability, T/C (second compound 0.316 µM, first compound 0.001 µM) 63.8% | viability, T/C [9] 62.7% | viability, T/C [10] 60.4% | viability, T/C [11] 56.1% | viability, T/C [12] 57.7% | viability, T/C (second compound 1 µM, first compound 0.000316 µM) 58.6% | viability, T/C (second compound 1 µM, first compound 0.001 µM) 65.5% | viability, T/C [13] 59.6% | viability, T/C [14] 62.6% | viability, T/C [15] 52.8% | viability, T/C [16] 57% | viability, T/C (second compound 3.16 µM, first compound 0.000316 µM) 12.5% | viability, T/C (second compound 3.16 µM, first compound 0.001 µM) 10.9% | viability, T/C [17] 13.9% | viability, T/C [18] 11.5% | viability, T/C [19] 12.4% | viability, T/C [20] 11.6%
> 100 nM: IC50 (curve of first compound, second compound 0.0316 µM) | IC50 [1] | IC50 [2] | IC50 [3]
< 0.316 nM: IC50 [4]

CCN1CCN(Cc2ccc(Nc3ncc(F)c(-c4cc(F)c5nc(C)n(C(C)C)c5c4)n3)nc2)CC1 + CNCc1ccccc1-c1csc(C(C)Nc2nc(C)nc3cc(OC)c(OC)cc23)c1
127 nM: IC50 [4]
> 1000 nM: IC50 [1] | IC50 [2] | IC50 [3]
inactive: viability, T/C [5] 91.5% | viability, T/C [6] 85.2% | viability, T/C [7] 59.8% | viability, T/C [8] 47% | viability, T/C [22] 51.5% | viability, T/C [23] 59.7% | viability, T/C [9] 97.3% | viability, T/C [10] 93.3% | viability, T/C [11] 65.7% | viability, T/C [12] 56% | viability, T/C [24] 53% | viability, T/C [25] 56% | viability, T/C [13] 94.2% | viability, T/C [14] 92.8% | viability, T/C [15] 72.6% | viability, T/C [16] 71.8% | viability, T/C [26] 61.8% | viability, T/C [27] 57.7% | viability, T/C [17] 80% | viability, T/C [18] 79.2% | viability, T/C [19] 68.4% | viability, T/C [20] 53.4% | viability, T/C [28] 33%
active: viability, T/C [29] 1.27% | viability, T/C (second compound 10 µM, first compound 0.00316 µM) 0.23% | viability, T/C (second compound 10 µM, first compound 0.01 µM) 0.23% | viability, T/C [30] 0.18% | viability, T/C [31] 0.16% | viability, T/C [32] 0.16% | viability, T/C [33] 0.18%
< 3.16 nM: IC50 [21]

CC(=O)Nc1cccc(-n2c(=O)n(C3CC3)c(=O)c3c(Nc4ccc(I)cc4F)n(C)c(=O)c(C)c32)c1
5.93 nM [middle of 5 runs]: IC50 (curve of compound)
inactive: viability, T/C (compound 0.0001 µM) 98.3% [middle of 5 runs] | viability, T/C (compound 0.000316 µM) 90.7% [middle of 5 runs] | viability, T/C (compound 0.001 µM) 76.2% [middle of 5 runs] | viability, T/C (compound 0.00316 µM) 57.5% [middle of 5 runs] | viability, T/C (compound 0.01 µM) 44.7% [middle of 5 runs] | viability, T/C (compound 0.0316 µM) 31.2% [middle of 5 runs]

O=C(c1cc(Cc2n[nH]c(=O)c3ccccc23)ccc1F)N1CCN(C(=O)C2CC2)CC1 + C=CC(=O)N1CCN(c2nc(=O)n(-c3c(C)ccnc3C(C)C)c3nc(-c4c(O)cccc4F)c(F)cc23)C(C)C1
> 10000 nM: IC50 [1] | IC50 [4]
1730 nM: IC50 [21]
7830 nM: IC50 [3]
7450 nM: IC50 [2]
inactive: viability, T/C [7] 64.6% | viability, T/C [8] 61.7% | viability, T/C [22] 62.9% | viability, T/C [23] 64.5% | viability, T/C [34] 64.7% | viability, T/C [35] 50.3% | viability, T/C [11] 67.1% | viability, T/C [12] 59.7% | viability, T/C [24] 61.3% | viability, T/C [25] 55.9% | viability, T/C [36] 55.3% | viability, T/C [37] 46.7% | viability, T/C [15] 60.8% | viability, T/C [16] 59.9% | viability, T/C [26] 59.2% | viability, T/C [27] 61.7% | viability, T/C [38] 60.3% | viability, T/C [39] 39.2% | viability, T/C [19] 64.2% | viability, T/C [20] 66.2% | viability, T/C [28] 61.1% | viability, T/C [29] 61% | viability, T/C [40] 58.7% | viability, T/C [41] 46.2% | viability, T/C [30] 48.3% | viability, T/C [31] 50.1% | viability, T/C [32] 60.3% | viability, T/C [33] 55.6% | viability, T/C [42] 45% | viability, T/C [43] 32%

Cn1nccc1Nc1nccc(-c2cc3c(s2)C(C)(C)N(CCN2CCOCC2)C3=O)n1 + CC1OCC2(CCN(c3cnc(Sc4ccnc(N)c4Cl)c(N)n3)CC2)C1N
806 nM: IC50 [1]
102 nM: IC50 [2]
< 31.6 nM: IC50 [3] | IC50 [4] | IC50 [21]
active: viability, T/C [42] 9.11% | viability, T/C [43] 12.2%
inactive: viability, T/C [7] 66.1% | viability, T/C [8] 67.3% | viability, T/C [22] 55.8% | viability, T/C [23] 51% | viability, T/C [34] 35.9% | viability, T/C [35] 36.4% | viability, T/C [11] 56% | viability, T/C [12] 50.3% | viability, T/C [24] 36.2% | viability, T/C [25] 33.1% | viability, T/C [36] 33.6% | viability, T/C [37] 33.5% | viability, T/C [15] 32.9% | viability, T/C [16] 32.4% | viability, T/C [26] 27.4% | viability, T/C [27] 22% | viability, T/C [38] 23.3% | viability, T/C [39] 22.9% | viability, T/C [19] 17.4% | viability, T/C [20] 16% | viability, T/C [28] 13.9% | viability, T/C [29] 14.7% | viability, T/C [40] 14.7% | viability, T/C [41] 18.8% | viability, T/C [30] 14.4% | viability, T/C [31] 12.8% | viability, T/C [32] 9.42% | viability, T/C [33] 8.83%
